{"source": "patent US10232037B2", "about": "“Supramolecular hydrogel of fMLF-based molecules and use thereof” (BRANDEIS UNIVERSITY, priority 2014, dated 2019)", "origin": "cited, not measured here", "system": "neutrophils", "details": "aqueous solution, literature"}
{"smiles": "CSCC[C@H](NC=O)C(=O)N[C@@H](CC(C)C)C(=O)N[C@@H](Cc1ccccc1)C(=O)O", "note": "[fMLF, N-formyl-L-methionyl-L-leucyl-L-phenylalanine]", "values": [{"measurement": "duration of neutrophil accumulation effect", "result": "2 to 6", "unit": "h"}]}
